In US9469650B2, “Melampomagnolide B derivatives” (BOARD OF TRUSTEES OF THE UNIVERSITY OF ARKANSAS, priority 2013, dated 2016):
Read-outs that look alike come from different tables or passages of the source.

Key:
[1] = tested on: HL-60(TB)
[2] = tested on: CCRF-CEM; assay: panel of 60 human tumor cell lines, growth inhibition (Leukemia)
[3] = tested on: M14; assay: panel of 60 human tumor cell lines, growth inhibition (Melanoma)
[4] = tested on: MDA-MB-435; assay: as above
[5] = tested on: SF-539; assay: panel of 60 human tumor cell lines, growth inhibition (CNS Cancer)
[6] = tested on: COLO 205; assay: panel of 60 human tumor cell lines, growth inhibition (Colon Cancer)
[7] = tested on: HCT-15; assay: as above
[8] = tested on: KM12; assay: as above
[9] = tested on: ACHN; assay: panel of 60 human tumor cell lines, growth inhibition (Renal Cancer)
[10] = tested on: SN12C; assay: as above
[11] = tested on: MDA-MB-231/ATCC; assay: panel of 60 human tumor cell lines, growth inhibition (Breast Cancer); settings: for Percent Growth: MDA-MB-231/ATCC
[12] = tested on: PC-3; assay: panel of 60 human tumor cell lines, growth inhibition (Prostate Cancer)
[13] = tested on: HOP-92; assay: panel of 60 human tumor cell lines, growth inhibition (Non-Small Cell Lung Cancer); settings: for Percent Growth: HOP-92
[14] = tested on: NCI-H226; assay: as above
[15] = tested on: NCI-H23; assay: as above
[16] = tested on: NCI-H460; assay: as above
[17] = tested on: NCI-H522; assay: as above

SMILES: C=C1C(=O)O[C@H]2[C@H]1CC/C(COC(=O)CCC(=O)NCc1ccc(Cl)nc1)=C\CC[C@@]1(C)O[C@@H]21 [JVM 96]
- Percent Growth ([1]; Log10 Concentration −4.0): −48%
- Percent Growth ([1]; Log10 Concentration −5.0): −5%
- Percent Growth ([1]; Log10 Concentration −6.0): 76%
- Percent Growth ([1]; Log10 Concentration −7.0): 78%
- Percent Growth ([1]; Log10 Concentration −8.0): 91%
- GI50 ([2]; Homo sapiens): 2.2 µM
- CC50 ([2]; Homo sapiens, read-out: LC50): > 100 µM
- IC (TGI) ([2]; Homo sapiens, read-out: TGI): 7.66 µM
- Percent Growth ([2]; Log10 Concentration −4.0): −49%
- Percent Growth ([2]; Log10 Concentration −5.0): −11%
- Percent Growth ([2]; Log10 Concentration −6.0): 82%
- Percent Growth ([2]; Log10 Concentration −7.0): 100%
- Percent Growth ([2]; Log10 Concentration −8.0): 99%
- GI50 ([3]; Homo sapiens, M14): 5.75 µM
- CC50 ([3]; Homo sapiens, M14, read-out: LC50): 50.3 µM
- IC (TGI) ([3]; Homo sapiens, M14, read-out: TGI): 19.5 µM
- Percent Growth ([3]; M14, Log10 Concentration −4.0): −86%
- Percent Growth ([3]; M14, Log10 Concentration −5.0): 35%
- Percent Growth ([3]; M14, Log10 Concentration −6.0): 96%
- Percent Growth ([3]; M14, Log10 Concentration −7.0): 91%
- Percent Growth ([3]; M14, Log10 Concentration −8.0): 98%
- GI50 ([4]; Homo sapiens, MDA-MB-435): 4.95 µM
- CC50 ([4]; Homo sapiens, MDA-MB-435, read-out: LC50): 61.9 µM
- IC (TGI) ([4]; Homo sapiens, MDA-MB-435, read-out: TGI): 20.4 µM
- Percent Growth ([4]; MDA-MB-435, Log10 Concentration −4.0): −72%
- Percent Growth ([4]; MDA-MB-435, Log10 Concentration −5.0): 32%
- Percent Growth ([4]; MDA-MB-435, Log10 Concentration −6.0): 90%
- Percent Growth ([4]; MDA-MB-435, Log10 Concentration −7.0): 89%
- Percent Growth ([4]; MDA-MB-435, Log10 Concentration −8.0): 97%
- GI50 ([5]; Homo sapiens, SF-539): 3.25 µM
- CC50 ([5]; Homo sapiens, SF-539, read-out: LC50): 40.8 µM
- IC (TGI) ([5]; Homo sapiens, SF-539, read-out: TGI): 12.2 µM
- Percent Growth ([5]; SF-539, Log10 Concentration −4.0): −87%
- Percent Growth ([5]; SF-539, Log10 Concentration −5.0): 8%
- Percent Growth ([5]; SF-539, Log10 Concentration −6.0): 94%
- Percent Growth ([5]; SF-539, Log10 Concentration −7.0): 85%
- Percent Growth ([5]; SF-539, Log10 Concentration −8.0): 96%
- Percent Growth ([6]; COLO 205, Log10 Concentration −4.0): −90%
- Percent Growth ([6]; COLO 205, Log10 Concentration −5.0): 1%
- Percent Growth ([6]; COLO 205, Log10 Concentration −6.0): 103%
- Percent Growth ([6]; COLO 205, Log10 Concentration −7.0): 105%
- Percent Growth ([6]; COLO 205, Log10 Concentration −8.0): 109%
- GI50 ([6]; Homo sapiens, COLO 205): 3.3 µM
- CC50 ([6]; Homo sapiens, COLO 205, read-out: LC50): 36.6 µM
- IC (TGI) ([6]; Homo sapiens, COLO 205, read-out: TGI): 10.3 µM
- Percent Growth ([7]; HCT-15, Log10 Concentration −4.0): −88%
- Percent Growth ([7]; HCT-15, Log10 Concentration −5.0): 16%
- Percent Growth ([7]; HCT-15, Log10 Concentration −6.0): 8.9%
- Percent Growth ([7]; HCT-15, Log10 Concentration −7.0): 93%
- Percent Growth ([7]; HCT-15, Log10 Concentration −8.0): 93%
- GI50 ([7]; Homo sapiens, HCT-15): 3.43 µM
- CC50 ([7]; Homo sapiens, HCT-15, read-out: LC50): 43.1 µM
- IC (TGI) ([7]; Homo sapiens, HCT-15, read-out: TGI): 14.2 µM
- GI50 ([8]; Homo sapiens, KM12): 17.7 µM
- CC50 ([8]; Homo sapiens, KM12, read-out: LC50): 67.9 µM
- TGI ([8]; KM12): 3.46E−5
- Percent Growth ([8]; KM12, Log10 Concentration −4.0): −79%
- Percent Growth ([8]; KM12, Log10 Concentration −5.0): 92%
- Percent Growth ([8]; KM12, Log10 Concentration −6.0): 104%
- Percent Growth ([8]; KM12, Log10 Concentration −7.0): 100%
- Percent Growth ([8]; KM12, Log10 Concentration −8.0): 98%
- GI50 ([9]; Homo sapiens): 4.45 µM
- CC50 ([9]; Homo sapiens, read-out: LC50): 51.9 µM
- IC (TGI) ([9]; Homo sapiens, read-out: TGI): 17.9 µM
- Percent Growth ([9]; Log10 Concentration −4.0): −81%
- Percent Growth ([9]; Log10 Concentration −5.0): 27%
- Percent Growth ([9]; Log10 Concentration −6.0): 92%
- Percent Growth ([9]; Log10 Concentration −7.0): 94%
- Percent Growth ([9]; Log10 Concentration −8.0): 98%
- GI50 ([10]; Homo sapiens): 12.5 µM
- CC50 ([10]; Homo sapiens, read-out: LC50): > 100 µM
- IC (TGI) ([10]; Homo sapiens, read-out: TGI): 40.4 µM
- Percent Growth ([10]; Log10 Concentration −4.0): −39%
- Percent Growth ([10]; Log10 Concentration −5.0): 59%
- Percent Growth ([10]; Log10 Concentration −6.0): 95%
- Percent Growth ([10]; Log10 Concentration −7.0): 100%
- Percent Growth ([10]; Log10 Concentration −8.0): 97%
- GI50 ([11]; Homo sapiens, MDA-MB-231): 6.19 µM
- CC50 ([11]; Homo sapiens, MDA-MB-231, read-out: LC50): 61.5 µM
- IC (TGI) ([11]; Homo sapiens, MDA-MB-231, read-out: TGI): 22.2 µM
- Percent Growth ([11]; Log10 Concentration −4.0): −74%
- Percent Growth ([11]; Log10 Concentration −5.0): 39%
- Percent Growth ([11]; Log10 Concentration −6.0): 91%
- Percent Growth ([11]; Log10 Concentration −7.0): 96%
- Percent Growth ([11]; Log10 Concentration −8.0): 97%
- GI50 ([12]; Homo sapiens, PC-3): 15.6 µM
- CC50 ([12]; Homo sapiens, PC-3, read-out: LC50): 75.7 µM
- IC (TGI) ([12]; Homo sapiens, PC-3, read-out: TGI): 34.3 µM
- Percent Growth ([12]; PC-3, Log10 Concentration −4.0): −68%
- Percent Growth ([12]; PC-3, Log10 Concentration −5.0): 78%
- Percent Growth ([12]; PC-3, Log10 Concentration −6.0): 93%
- Percent Growth ([12]; PC-3, Log10 Concentration −7.0): 92%
- Percent Growth ([12]; PC-3, Log10 Concentration −8.0): 90%
- Percent Growth ([13]; Log10 Concentration −4.0): −93%
- Percent Growth ([13]; Log10 Concentration −5.0): −2%
- Percent Growth ([13]; Log10 Concentration −6.0): 90%
- Percent Growth ([13]; Log10 Concentration −7.0): 93%
- Percent Growth ([13]; Log10 Concentration −8.0): 93%
- GI50 ([13]; Homo sapiens, HOP-92, HOP-92): 2.72 µM
- CC50 ([13]; Homo sapiens, HOP-92, read-out: LC50): 33.7 µM
- IC (TGI) ([13]; Homo sapiens, HOP-92, read-out: TGI): 9.47 µM
- GI50 ([14]; Homo sapiens, NCI-H226): 12.7 µM
- IC (TGI) ([14]; Homo sapiens, NCI-H226, read-out: TGI): 32 µM
- Percent Growth ([14]; NCI-H226, Log10 Concentration −4.0): −61%
- Percent Growth ([14]; NCI-H226, Log10 Concentration −5.0): 63%
- Percent Growth ([14]; NCI-H226, Log10 Concentration −6.0): 94%
- Percent Growth ([14]; NCI-H226, Log10 Concentration −7.0): 97%
- Percent Growth ([14]; NCI-H226, Log10 Concentration −8.0): 96%
- GI50 ([15]; Homo sapiens, NCI-H23): 18.4 µM
- CC50 ([15]; Homo sapiens, NCI-H23, read-out: LC50): > 100 µM
- IC (TGI) ([15]; Homo sapiens, NCI-H23, read-out: TGI): 45.7 µM
- Percent Growth ([15]; NCI-H23, Log10 Concentration −4.0): −43%
- Percent Growth ([15]; NCI-H23, Log10 Concentration −5.0): 83%
- Percent Growth ([15]; NCI-H23, Log10 Concentration −6.0): 103%
- Percent Growth ([15]; NCI-H23, Log10 Concentration −7.0): 103%
- Percent Growth ([15]; NCI-H23, Log10 Concentration −8.0): 96%
- GI50 ([16]; Homo sapiens, NCI-H460): 21.3 µM
- CC50 ([16]; Homo sapiens, NCI-H460, read-out: LC50): > 100 µM
- IC (TGI) ([16]; Homo sapiens, NCI-H460, read-out: TGI): 53.9 µM
- Percent Growth ([16]; NCI-H460, Log10 Concentration −4.0): −33%
- Percent Growth ([16]; NCI-H460, Log10 Concentration −5.0): 91%
- Percent Growth ([16]; NCI-H460, Log10 Concentration −6.0): 101%
- Percent Growth ([16]; NCI-H460, Log10 Concentration −7.0): 102%
- Percent Growth ([16]; NCI-H460, Log10 Concentration −8.0): 102%
- GI50 ([17]; Homo sapiens, NCI-H522): 1.6 µM
- CC50 ([17]; Homo sapiens, NCI-H522, read-out: LC50): 7.82 µM
- IC (TGI) ([17]; Homo sapiens, NCI-H522, read-out: TGI): 3.54 µM
- Percent Growth ([17]; NCI-H522, Log10 Concentration −4.0): −78%
- Percent Growth ([17]; NCI-H522, Log10 Concentration −5.0): −66%
- Percent Growth ([17]; NCI-H522, Log10 Concentration −6.0): 80%
- Percent Growth ([17]; NCI-H522, Log10 Concentration −7.0): 102%
- Percent Growth ([17]; NCI-H522, Log10 Concentration −8.0): 101%
